Data on 8 molecules can be found in article PMC9346113, “Therapeutic impact of BET inhibitor BI 894999 treatment: backtranslation from the clinic” (British Journal of Cancer, 2022).

Like-named read-outs stand apart in the source and are kept apart here.

The GI50 is the concentration at which growth is held to half of that of the control. One may read the TGI as the reduction of tumour growth relative to the control group.

Series [1] concerns Ty-82. The series is described as follows: Combination viability assay, Bliss analysis (CGI), Ty-82. It is filed as cell-based, human. The note with it: partner in combination with BI 894999 (10–20 nM). The procedure:
(§1) Viability assays were performed on 96-well flat-bottom microtiter plates and incubated with Alamar Blue solution (Invitrogen, Carlsbad, US-CA). The effects of drug combinations were analysed using the Bliss Independence Model.

For series [2] the following is noted: mice; 1 mg/kg romidepsin; BI 894999 at clinically relevant doses; data not shown.
Series [3] concerns Ty-82 BRD4-NUT. The series is described as follows: Cell proliferation assay (Alamar readout), Ty-82. The format is cell-based, human. The note with it: read-out: geomean GI50. How it is done:
(§2) The NUT Carcinoma cell line Ty-82 was purchased from JCRB Japan No. 1330 and cultivated in RPMI 1640 supplemented with 10% fetal calf serum (FCS). The NC cell lines 10–15, 14169 and 10326 were in-licensed from Christopher French, Brigham & Womens Hospital, Boston, and were cultivated in DMEM supplemented with glutamax and 10% FCS.
as §1
(§3) Dose response curves (96h cell proliferation assay - Alamar readout) on four NC cell lines with BET inhibitor BI 894999. Yellow bar: readout t zero (before adding of compound). Green bar: DMSO control (max proliferation).
(§4) Dose response curves (96h cell proliferation assay - Alamar readout) on four NC cell lines with multiple BET inhibitors.

Series [4] concerns 10–15 BRD4-NUT. The series is described as follows: Cell proliferation assay (Alamar readout), 10–15. It is filed as cell-based, human. The note with it: 96h, read-out: geomean GI50. How it is done:
as §2, §1, §3, §4

Series [5] has as its system 14169 BRD4-NUT. In words: Cell proliferation assay (Alamar readout), 14169. It is filed as cell-based, human. The note with it: 96h, read-out: geomean GI50. The procedure: as §2, §1, §3, §4
Series [6] has as its system 10326 BRD3-NUT. The series is described as follows: Cell proliferation assay (Alamar readout), 10326. The format is cell-based, human. The following applies: 96h, read-out: geomean GI50. How it is done: as §2, §1, §3, §4
The subject of series [7] is T1, BRD4-NUT.
T1 construct: endogenous in cells; host or cells: Ty-82 NUT carcinoma cells
In words: Immunofluorescence staining of NUT megadomains, Ty-82. It is filed as cell-based, human. The note with it: Ty-82; 30 min treatment. How it is done:
Cells were seeded on four-well chamber slides (Merck Millipore, #PEZGS0416). After treatment, cells were fixed with 4% PFA (16% Solution, Thermo Fischer #28908 Paraformaldehyde, diluted 1:4 in PBS), permeabilised with 0,1% TX-100 (Sigma #93443, diluted in PBS). After blocking in blocking buffer (10% normal goat serum, Sigma #G9023–10ml, diluted in blocking solution: 2% BSA/PBS, Sigma #A7284–50ml, diluted 1:15 in PBS), the first antibody mAB rabbit anti-NUT 1:1000 (clone C52B1, Cell Signaling #3625) in blocking buffer was added, followed by incubation with the 2nd antibody goat anti-rabbit Alexa*488 1:1000 (Thermo Fisher, #A-11008) in blocking buffer in the dark. Cells were mounted with ProLong Gold Antifade Mountant with DAPI (Thermo Fisher, #P36931) and analysed using a Laser scanning microscope (LSM700). […]
Immunofluorescence staining of NUT megadomains on NC Ty-82 treated with BI with BI 894999 30nM for 1 h, then changed to 10 nM or 5 nM or 2.5 nM or control for 24 h.

The test system of series [8] is Ty-82 xenograft (BRD4-NUT). The series is described as follows: Ty-82 NC xenograft model. The format is in vivo, mice. The source says:
(§5) Mice were group-housed (8–10 mice per cage) under pathogen-free and controlled environmental conditions (21 ± 1.5 C temperature, 55 ± 10% humidity) in an AAALAC accredited facility and handled according to the institutional, governmental and European Union guidelines (Austrian Animal Protection Laws, GV-SOLAS and FELASA guidelines). Animal studies were approved by the internal ethics committee and the local government committee. Mice were 6- to 8-week-old female CIEA NOG purchased from Taconic, Denmark (NOD.Cg-Prkdc^scid Il2rg^tm1Sug/JicTac). 5 × 10^6 NC tumour cells were injected subcutaneously into the right flank of the mice (1 site per mouse). Mice were randomly distributed between the treatment and the vehicle control when tumours were well established and had reached volumes of 100–150 mm^3. Compounds were suspended in 0.5% Natrosol and administered once daily intra-gastral by gavage needle. Tumour diameters were measured three times a week with a calliper. […] Within each subtopic the p-values of the efficacy parameters were adjusted for multiple comparisons according to Bonferroni–Holm. The p-values of the tolerability parameter remained unadjusted in order not to overlook a possible adverse effect. The level of significance was fixed at α = 5%. An adjusted p-value of less than 0.05 was considered to show a statistically significant difference between the groups. The statistical evaluation was prepared using the software Graph Pad Prism.

The test system of series [9] is 10–15 xenograft (BRD4-NUT). In words: 10–15 NC xenograft model. It is filed as in vivo, mice.
Text: as §5

Series [10] has as its system 10326 xenograft (BRD3-NUT). The series is described as follows: 10326 NC xenograft model. It is filed as in vivo.
Text: as §5

Series [11] can be described thus: PK analysis in mouse plasma. It is filed as in vivo. The note with it: CIEA NOG (NOD.Cg-Prkdc^scid Il2rg^tm1Sug/JicTac), oral, mice, 5 mg/kg CCS1477, exposure defined as sufficient for a synergistic effect, read-out: plasma concentration at 6 h after compound application. The source says:
PK analysis in mouse plasma. Oral treatment at the indicated doses. Sampling at the indicated timepoints.

The subject of series [12] is T2, BRD3-NUT.
T2 construct: endogenous in cells; host or cells: 10326 NUT carcinoma cells, in culture (A11) and as subcutaneous xenograft tumours in NOG mice (A26)
The series is described as follows: IHC of 10326 xenograft tumours, NUT protein. The following applies: day 21, CCS1477 at either dose (5 or 10 mg/kg). It is filed as in vivo, mice. The procedure: Immunohistochemistry was performed on formalin-fixed, paraffin-embedded tumour tissue using antibodies against human Ki67(Cell Signaling #9027, 1:400 dilution), anti-human mitochondria (Abcam ab92824, 1:1000 dilution) and against endogenous NUT protein (Cell Signaling #3625, 1:50 dilution) used to detect NUT fusion proteins. Digital images of whole tissue sections were acquired using a Leica SCN400 histology scanner (Leica Microsystems). Ki67-positive index was evaluated using Halo Software V. 3.2 (Indica lab). Regions of interest (ROIs) within the tissue sections were first identified using Halo Software via machine learning technology across pathological samples and tissue control, within these ROIs, nuclei were detected and classified as positive or negative based on IHC staining thresholds.
BRD3-NUT 10326 tumor sections after treatment with 2 mg/kg BI 894999, 5 mg/kg or 10 mg/kg CCS1477 and the combination of both. IHC staining for NUT protein.

For series [13], the system named is 10–15 xenografts. Further details: method as in PMID 32371576. The following applies: mice bearing 10–15 xenografts; tumour regression not described; cited from earlier work.

Regarding `C/C=C1\NC(=O)[C@H]2CSSCC/C=C/[C@H](CC(=O)N[C@H](C(C)C)C(=O)N2)OC(=O)[C@H](C(C)C)NC1=O` [Romidepsin], the “cell growth inhibition >100% reached at clinically achievable concentrations” value (“cell growth inhibition >100% reached” for short) in series [1] is “accomplished”. The “benefit when added to BI 894999” value in series [2] is recorded as “did not show benefit”.
Regarding `CCNC(=O)C[C@@H]1N=C(c2ccc(Cl)cc2)c2cc(OC)ccc2-n2c(C)nnc21` [GSK525762], the GI50 in series [3] (Homo sapiens, TY82, 96h) stood at 154 nM; in series [4] (Homo sapiens) it was 113 nM; in series [5] (Homo sapiens) it was 55 nM; in series [6] (Homo sapiens) it was 43.6 nM.
On to `CNC(=O)Nc1ccc2c(c1)CC[C@@]21OC(=O)N(CC(=O)N(Cc2ccc(F)cc2)[C@@H](C)C(F)(F)F)C1=O` [A485], for which the “cell growth inhibition >100% reached” value in series [1] is on record as “not”.
Still for that read-out and setting: then `CNC(=O)N1CCc2c(c(N3CCCc4cc(-c5cnn(C)c5)c(C(F)F)cc43)nn2C2CCOCC2)C1` [GNE-781], with “accomplished”.
As to `CO[C@H]1CC[C@H](n2c([C@@H]3CCCC(=O)N3c3ccc(F)c(F)c3)nc3cc(-c4c(C)noc4C)ccc32)CC1` [CCS1477], the GI50 in series [3] (Homo sapiens, TY82, 96h) is 38.5 nM; in series [4] (Homo sapiens) it was 32.9 nM; in series [5] (Homo sapiens), 62.9 nM; in series [6] (Homo sapiens), 22.7 nM. Moreover, in [7], the “concentration at which BRD4-NUT detaches from chromatin / is re-distributed” value is over 1000 nM. The “cell growth inhibition >100% reached” value in series [1] was “accomplished”. Moreover, the “TGI (tumour growth inhibition)” value in series [8] (5 mg/kg CCS1477 p.o. daily) was determined as 29%; in [8] (10 mg/kg CCS1477 p.o. daily), 11%. Besides, the TGI came out at 24% in series [9] (5 mg/kg CCS1477), 30% in series [9] (10 mg/kg CCS1477), 65% in series [10] (5 mg/kg CCS1477) and 88% in series [10] (10 mg/kg CCS1477). The concentration at 6 h in series [11] lay within 200 to 300 nM. In [12], the “loss of speckled megadomain localisation (NUT staining)” value is given as “not seen”.
For the molecule `Cc1[nH]c2ccccc2c1CCNCc1ccc(/C=C/C(=O)NO)cc1` [Panobinostat], the “cell growth inhibition >100% reached” value in series [1] was “accomplished”.
`Cc1cc(-c2ccc3nc(C4CCOCC4)n(CCOC(F)(F)F)c3c2)cn(C)c1=O` [NEO2734]: the GI50 in [3] (96h) came to 26.5 nM; in [4] it was 22.6 nM; in [5], 20.4 nM; in series [6] it was 11.2 nM. The “concentration at which BRD4-NUT detaches from chromatin / is re-distributed” value in [7] was over 100 nM. Besides, the “efficacy compared to BETi alone” value in [13] was “greater growth inhibition and significantly improved survival”.
As for `Cc1sc2c(c1C)C(c1ccc(Cl)cc1)=N[C@@H](CC(=O)OC(C)(C)C)c1nnc(C)n1-2` [JQ1], the GI50 in [3] (96h) is 110 nM; in series [4], 84.4 nM; in series [5] it was 49.2 nM; in series [6], 43.2 nM.
